Assay results reported in US9006487B2, “Amine-containing lipids and uses thereof” (Massachusetts Institute of Technology, priority 2005, dated 2015).
“And” between values parts separate entries of the source, which are not always exact repeats. Equal values may be shown once.

Tested on: cos-7 cells
Assay: DNA transfection: luciferase expression relative to Lipofectamine 2000
Assay type: cell-based
Conditions: 300 ng Luciferase DNA per well, luciferase assay after 48 hours
Procedure, shortened: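 Lipid/DNA complexes, 300 ng luciferase DNA per well at 2.5-25 w/w lipid:DNA, were formed in sodium acetate/Optimem and added to overnight-seeded cos-7 cells. Luciferase was measured by Bright-Glo luminescence after 48 hours and quantified against an enzyme standard curve. Values are expressed as % of Lipofectamine 2000 at 2.5 w/w.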

For `CCCCCCCCCCOC(=O)CCN(CCC(=O)OCCCCCCCCCC)CCC1OCCO1` [LB6], the “Luciferase expression as a percentage of that achieved using Lipofectamine 2000” value (“Luciferase expression as a percentage” below) (lipid/DNA 2.5 w/w) was 0.1%, the “Luciferase expression as a percentage” value (lipid/DNA 5 w/w) was 0.1% and the “Luciferase expression as a percentage” value (lipid/DNA 10 w/w) was 0.1%. The “Luciferase expression as a percentage” value (lipid/DNA 15 w/w) was 0.1%, the “Luciferase expression as a percentage” value (lipid/DNA 20 w/w) was 0.1% and the “Luciferase expression as a percentage” value (lipid/DNA 25 w/w) was 0.1%.
For `CCCCCCCCCCCCOC(=O)CCN(CCC(=O)OCCCCCCCCCCCC)CCN1CCOCC1` [LD90], the “Luciferase expression as a percentage” value (lipid/DNA 2.5 w/w) was 0.5% and 0.4%, the “Luciferase expression as a percentage” value (lipid/DNA 5 w/w) was 0.4% and the “Luciferase expression as a percentage” value (lipid/DNA 10 w/w) was 0.4%. The “Luciferase expression as a percentage” value (lipid/DNA 15 w/w) was 0.6% and 0.4%, the “Luciferase expression as a percentage” value (lipid/DNA 20 w/w) was 0.4% and 0.5% and the “Luciferase expression as a percentage” value (lipid/DNA 25 w/w) was 0.4% and 0.5%.
`CCCCCCCCCCCCCOC(=O)CCN(CCC(=O)OCCCCCCCCCCCCC)CCN1CCOCC1` [LE90] was tested, and the “Luciferase expression as a percentage” value (lipid/DNA 2.5 w/w) was 0.5%, the “Luciferase expression as a percentage” value (lipid/DNA 5 w/w) was 0.3% and the “Luciferase expression as a percentage” value (lipid/DNA 10 w/w) was 0.4%. For the same compound, the “Luciferase expression as a percentage” value (lipid/DNA 15 w/w) was 0.4%, the “Luciferase expression as a percentage” value (lipid/DNA 20 w/w) was 0.4% and the “Luciferase expression as a percentage” value (lipid/DNA 25 w/w) was 0.4%.
For `CCCCCCCCCCCCCCCOC(=O)CC[N+](C)(CCCOC)CCC(=O)OCCCCCCCCCCCCCCC.[I-]` [QG1], the “Luciferase expression as a percentage” value (lipid/DNA 2.5 w/w) was 0.4%, the “Luciferase expression as a percentage” value (lipid/DNA 5 w/w) was 0.5% and the “Luciferase expression as a percentage” value (lipid/DNA 10 w/w) was 0.4%. For the same compound, the “Luciferase expression as a percentage” value (lipid/DNA 15 w/w) was 0.4%, the “Luciferase expression as a percentage” value (lipid/DNA 20 w/w) was 0.3% and the “Luciferase expression as a percentage” value (lipid/DNA 25 w/w) was 0.3%.
With `CCCCCCCCCCCCCCOC(=O)CCN(CCC(=O)OCCCCCCCCCCCCCC)C[C@@H](C)O` [LF21] the “Luciferase expression as a percentage” value (lipid/DNA 2.5 w/w) was 0.4%, the “Luciferase expression as a percentage” value (lipid/DNA 5 w/w) was 0.4% and the “Luciferase expression as a percentage” value (lipid/DNA 10 w/w) was 0.4%. The “Luciferase expression as a percentage” value (lipid/DNA 15 w/w) was 0.4%, the “Luciferase expression as a percentage” value (lipid/DNA 20 w/w) was 0.4% and the “Luciferase expression as a percentage” value (lipid/DNA 25 w/w) was 0.4%.
For `CCCCCCCCCCCCCCCOC(=O)CCN(C)CCN(C)CCC(=O)OCCCCCCCCCCCCCCC` [LG60], the “Luciferase expression as a percentage” value (lipid/DNA 2.5 w/w) was 0.9%, the “Luciferase expression as a percentage” value (lipid/DNA 5 w/w) was 1.0% and the “Luciferase expression as a percentage” value (lipid/DNA 10 w/w) was 0.8%. For the same compound, the “Luciferase expression as a percentage” value (lipid/DNA 15 w/w) was 0.9%, the “Luciferase expression as a percentage” value (lipid/DNA 20 w/w) was 0.8% and the “Luciferase expression as a percentage” value (lipid/DNA 25 w/w) was 1.0%.
`CCCCCCCCCCOC(=O)CCN(C)CCCN(C)CCC(=O)OCCCCCCCCCC` [LB63] was tested, and the “Luciferase expression as a percentage” value (lipid/DNA 2.5 w/w) was 0.1%, the “Luciferase expression as a percentage” value (lipid/DNA 5 w/w) was 0.2% and 0.1% and the “Luciferase expression as a percentage” value (lipid/DNA 10 w/w) was 0.1%. The “Luciferase expression as a percentage” value (lipid/DNA 15 w/w) was 1.0% and 0.1%, the “Luciferase expression as a percentage” value (lipid/DNA 20 w/w) was 0.1% and the “Luciferase expression as a percentage” value (lipid/DNA 25 w/w) was 0.2% and 0.1%.
`CCCCCCCCCCCCCCCOC(=O)CCN(CCC(=O)OCCCCCCCCCCCCCCC)C(CC)(CO)CO` [LG34] was tested, and the “Luciferase expression as a percentage” value (lipid/DNA 10 w/w) was 1.4% and the “Luciferase expression as a percentage” value (lipid/DNA 15 w/w) was 0.8%.
For `CCCCCCCCCCOC(=O)CCN(CCC(=O)OCCCCCCCCCC)C(CO)CO` [LB25], the “Luciferase expression as a percentage” value (lipid/DNA 2.5 w/w) was 0.8%, the “Luciferase expression as a percentage” value (lipid/DNA 5 w/w) was 2.4% and the “Luciferase expression as a percentage” value (lipid/DNA 10 w/w) was 2.6%. For the same compound, the “Luciferase expression as a percentage” value (lipid/DNA 15 w/w) was 3.3%, the “Luciferase expression as a percentage” value (lipid/DNA 20 w/w) was 2.3% and the “Luciferase expression as a percentage” value (lipid/DNA 25 w/w) was 1.8%.
`CCCCCCCCCCCCOC(=O)CCN(C)CCN(CCC(=O)OCCCCCCCCCCCC)CCC(=O)OCCCCCCCCCCCC` [LD95] was tested, and the “Luciferase expression as a percentage” value (lipid/DNA 2.5 w/w) was 1.2%, the “Luciferase expression as a percentage” value (lipid/DNA 5 w/w) was 19.5% and the “Luciferase expression as a percentage” value (lipid/DNA 10 w/w) was 3.6%. For the same compound, the “Luciferase expression as a percentage” value (lipid/DNA 15 w/w) was 9.1%, the “Luciferase expression as a percentage” value (lipid/DNA 20 w/w) was 9.4% and the “Luciferase expression as a percentage” value (lipid/DNA 25 w/w) was 5.9%.
`CCCCCCCCCCOC(=O)CCN(CCC(=O)OCCCCCCCCCC)C1CCC(O)CC1` (stereo not shown) [LB38] was tested, and the “Luciferase expression as a percentage” value (lipid/DNA 2.5 w/w) was 0.7%, the “Luciferase expression as a percentage” value (lipid/DNA 5 w/w) was 0.8% and the “Luciferase expression as a percentage” value (lipid/DNA 10 w/w) was 0.7%. For the same compound, the “Luciferase expression as a percentage” value (lipid/DNA 15 w/w) was 0.8%, the “Luciferase expression as a percentage” value (lipid/DNA 20 w/w) was 0.7% and the “Luciferase expression as a percentage” value (lipid/DNA 25 w/w) was 0.8%.
For `CCCCCCCCCCCCCCCOC(=O)CCN(CCCN(CCO)CCO)CCC(=O)OCCCCCCCCCCCCCCC` [LG87], the “Luciferase expression as a percentage” value (lipid/DNA 2.5 w/w) was 14.5%, the “Luciferase expression as a percentage” value (lipid/DNA 5 w/w) was 7.5% and the “Luciferase expression as a percentage” value (lipid/DNA 10 w/w) was 9.2%. For the same compound, the “Luciferase expression as a percentage” value (lipid/DNA 15 w/w) was 10.4%, the “Luciferase expression as a percentage” value (lipid/DNA 20 w/w) was 5.9% and the “Luciferase expression as a percentage” value (lipid/DNA 25 w/w) was 4.7%.
With `CCCCCCCCCCCCCCOC(=O)CCN(CCCCCCO)CCC(=O)OCCCCCCCCCCCCCC` [LF36] the “Luciferase expression as a percentage” value (lipid/DNA 2.5 w/w) was 0.1%, the “Luciferase expression as a percentage” value (lipid/DNA 5 w/w) was 0.1% and the “Luciferase expression as a percentage” value (lipid/DNA 10 w/w) was 0.1%. For the same compound, the “Luciferase expression as a percentage” value (lipid/DNA 15 w/w) was 0.1%, the “Luciferase expression as a percentage” value (lipid/DNA 20 w/w) was 0.1% and the “Luciferase expression as a percentage” value (lipid/DNA 25 w/w) was 0.1%.
With `CCCCCCCCCCCCOC(=O)CC[N+](C)(CCCCO)CCC(=O)OCCCCCCCCCCCC.[I-]` [QD28] the “Luciferase expression as a percentage” value (lipid/DNA 10 w/w) was 0.1% and the “Luciferase expression as a percentage” value (lipid/DNA 15 w/w) was 0.1%.
With `CCCCCCCCCCCCCCOC(=O)CCN1CCCN(CCC(=O)OCCCCCCCCCCCCCC)CC1` [LF70] the “Luciferase expression as a percentage” value (lipid/DNA 2.5 w/w) was 0.1%, the “Luciferase expression as a percentage” value (lipid/DNA 5 w/w) was 0.1% and the “Luciferase expression as a percentage” value (lipid/DNA 10 w/w) was 0.2%. The “Luciferase expression as a percentage” value (lipid/DNA 15 w/w) was 0.3%, the “Luciferase expression as a percentage” value (lipid/DNA 20 w/w) was 0.2% and the “Luciferase expression as a percentage” value (lipid/DNA 25 w/w) was 0.3%.
In the case of `CCCCCCCCCCCCCCOC(=O)CCN(CCCN(C)C)CCC(=O)OCCCCCCCCCCCCCC` [LF80], the “Luciferase expression as a percentage” value (lipid/DNA 2.5 w/w) was 2.5%, the “Luciferase expression as a percentage” value (lipid/DNA 5 w/w) was 35.1% and the “Luciferase expression as a percentage” value (lipid/DNA 10 w/w) was 35.5%. For the same compound, the “Luciferase expression as a percentage” value (lipid/DNA 15 w/w) was 34.3%, the “Luciferase expression as a percentage” value (lipid/DNA 20 w/w) was 19.9% and the “Luciferase expression as a percentage” value (lipid/DNA 25 w/w) was 14.8%.
For `CCCCCCCCCCCCCCCOC(=O)CC[N+](C)(CCC(=O)OCCCCCCCCCCCCCCC)CC1COC(C)(C)O1.[I-]` (stereo not shown) [QG7], the “Luciferase expression as a percentage” value (lipid/DNA 2.5 w/w) was 0.4%, the “Luciferase expression as a percentage” value (lipid/DNA 5 w/w) was 0.3% and the “Luciferase expression as a percentage” value (lipid/DNA 10 w/w) was 0.5%. For the same compound, the “Luciferase expression as a percentage” value (lipid/DNA 15 w/w) was 0.3%, the “Luciferase expression as a percentage” value (lipid/DNA 20 w/w) was 0.4% and the “Luciferase expression as a percentage” value (lipid/DNA 25 w/w) was 0.3%.
`CCCCCCCCCCCCCCOC(=O)CCN(CCCN(CCO)CCO)CCC(=O)OCCCCCCCCCCCCCC` [LF87] was tested, and the “Luciferase expression as a percentage” value (lipid/DNA 2.5 w/w) was 19.4%, the “Luciferase expression as a percentage” value (lipid/DNA 5 w/w) was 11.3% and the “Luciferase expression as a percentage” value (lipid/DNA 10 w/w) was 30.2%. The “Luciferase expression as a percentage” value (lipid/DNA 15 w/w) was 13.3%, the “Luciferase expression as a percentage” value (lipid/DNA 20 w/w) was 11.0% and the “Luciferase expression as a percentage” value (lipid/DNA 25 w/w) was 10.0%.
